A value given as a limit tells only on which side of the number the result lay.

The experiment deals with Coagulation factor XI (Homo sapiens, UniProt P03951). Kind of experiment: Factor XIa Assay: The effectiveness of a compound of the present invention as an inhibitor of Coagulation Factor XIa can be determined using a relevant purified serine protease, and an appropriate synthetic substrate. The rate of hydrolysis of the chromogenic or fluorogenic substrate by the relevant serine protease was measured both in the absence and presence of compounds of the present invention. Assays were conducted at rt or at 37° C. […] A decrease in the rate of fluorescence change in the presence of inhibitor is indicative of enzyme inhibition. Such methods are known to one skilled in the art. […] Times required to achieve equilibration between enzyme and inhibitor were determined in control experiments. Initial velocities of product formation in the absence (Vo) or presence of inhibitor (Vi) were measured. Assuming competitive inhibition, and that unity is negligible compared Km/[S], [I]/e, and [I]/e (where [S], [I], and e respectively represent the total concentrations, of substrate, inhibitor and enzyme), the equilibrium constant (Ki) for dissociation of the inhibitor from the enzyme can be obtained from the dependence of Vo/Vi on [I] shown in the following equation.
Coagulation factor XI, sequence (P03951 19-387 limits assumed): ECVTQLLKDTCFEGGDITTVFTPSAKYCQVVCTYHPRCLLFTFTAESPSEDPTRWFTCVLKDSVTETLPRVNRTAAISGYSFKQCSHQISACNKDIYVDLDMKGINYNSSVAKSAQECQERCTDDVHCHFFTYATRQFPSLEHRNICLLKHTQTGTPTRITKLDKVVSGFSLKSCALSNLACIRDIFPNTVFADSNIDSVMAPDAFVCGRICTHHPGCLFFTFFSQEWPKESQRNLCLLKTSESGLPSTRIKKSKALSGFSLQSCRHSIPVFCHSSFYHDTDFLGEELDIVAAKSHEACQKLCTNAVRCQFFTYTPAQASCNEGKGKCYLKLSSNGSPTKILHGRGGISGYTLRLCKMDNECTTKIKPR
Coagulation factor XI, sequence (P03951 388-625 limits assumed): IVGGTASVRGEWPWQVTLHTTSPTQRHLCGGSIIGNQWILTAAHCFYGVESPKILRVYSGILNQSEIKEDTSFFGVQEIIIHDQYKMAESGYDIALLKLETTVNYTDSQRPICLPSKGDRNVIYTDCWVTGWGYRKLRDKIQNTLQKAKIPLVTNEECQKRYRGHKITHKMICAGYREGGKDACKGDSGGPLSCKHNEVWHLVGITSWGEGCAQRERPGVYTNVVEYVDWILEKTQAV
In general, Ki refers to a dissociation constant, usually derived from enzyme kinetics or from competition with a known ligand. For the compound `COC(=O)Nc1ccc2c(c1)NC(=O)CCCCC(c1ccc(-c3c(F)cccc3OC(F)F)cn1)c1cccc-2c1` (stereo unspecified), the Ki is more than 875 nM. For `COC(=O)Nc1ccc2c(c1)NC(=O)CCCCC(c1ccc(-c3cc(Cl)ccc3-n3cc(C(F)F)nn3)cn1)c1cccc-2c1` (stereo unspecified), the Ki was 9.2 nM. The result for `COC(=O)Nc1ccc2c(c1)NC(=O)CCCCC(c1ccc(-c3cc(Cl)ccc3-n3cc(C#N)cn3)cn1)c1cccc-2c1` (stereo unspecified) reads 211 nM; that for `COC(=O)Nc1ccc2c(c1)NC(=O)CCCCC(c1ccc(-c3cc(Cl)ccc3C(F)(F)F)cn1)c1cccc-2c1` (stereo unspecified), more than 875 nM; that for `COC(=O)Nc1ccc2c(c1)NC(=O)CCCCC(c1ccc(-c3cc(Cl)ccc3OC(F)F)cn1)c1cccc-2c1` (stereo unspecified), 181 nM. As to `COC(=O)Nc1ccc2c(c1)NC(=O)CCCCC(c1ccc(-c3cc(Cl)ccc3OC(F)(F)F)cn1)c1cccc-2c1` (stereo unspecified), the Ki was found to be 399 nM. To `COC(=O)Nc1ccc2c(c1)NC(=O)CCCCC(c1ccc(-c3cc(Cl)ccc3-n3cc(C4CC4)nn3)cn1)c1cccc-2c1` (stereo unspecified) belongs 137 nM; to `COC(=O)Nc1ccc2c(c1)NC(=O)CCCCC(c1ccc(-c3c(-n4cc(C(F)(F)F)nn4)ccc(Cl)c3F)cn1)c1cccc-2c1` (stereo unspecified), 2.02 nM; to `COC(=O)Nc1ccc2c(c1)NC(=O)CCCCC(c1ccc(-c3cc(Cl)ccc3-n3cc(C(F)(F)F)nn3)cn1)c1cccc-2c1` (stereo unspecified), 18.3 nM. The result for `COC(=O)Nc1ccc2c(c1)NC(=O)CCCCC(c1ccc(-c3cc(Cl)ccc3-c3cnco3)cn1)c1cccc-2c1` (stereo unspecified) reads 259 nM. The result for `COC(=O)Nc1ccc2c(c1)NC(=O)CCCCC(c1ccc(-c3cc(Cl)ccc3-n3cc(Cl)nn3)cn1)c1cccc-2c1` (stereo unspecified) reads 12 nM; that for `COC(=O)Nc1ccc2c(c1)NC(=O)CCCCC(c1ccc(-c3cc(Cl)ccc3-n3cc(C(F)(F)F)cn3)cn1)c1cccc-2c1` (stereo unspecified), 708 nM. Take `COC(=O)Nc1ccc2c(c1)NC(=O)CCCCC(c1ccc(-c3cc(Cl)ccc3C#N)cn1)c1cccc-2c1` (stereo unspecified): the Ki turned out to be 41 nM. To `COC(=O)Nc1ccc2c(c1)NC(=O)CCCCC(c1ccc(-c3cc(Cl)ccc3-c3cnn(C(F)F)c3)cn1)c1cccc-2c1` (stereo unspecified) belongs 640 nM. To `COC(=O)Nc1ccc2c(c1)NC(=O)CCCCC(c1ccc(-c3c(-n4cnnn4)ccc(Cl)c3F)cn1)c1cccc-2c1` (stereo unspecified) belongs 0.24 nM; to `COC(=O)Nc1ccc2c(c1)NC(=O)CCCCC(c1ccc(-c3cc(F)ccc3-n3cnnn3)cn1)c1cccc-2c1` (stereo unspecified), 7 nM.

The values above are taken from ChEMBL document CHEMBL5726611, “Factor XIA inhibitors” (2019).
